# In PMC11817610, “Stereoselective Synthesis and Biological Evaluation of Perhydroquinoxaline-Based κ Receptor Agonists” (International Journal of Molecular Sciences, 2025):
# Like-named read-outs stand apart in the source and are kept apart here.
# Key:
# κ receptor = κ receptor (Cavia porcellus, UniProt P41144); experiment: κ receptor radioligand binding assay with [3H]U-69,593, guinea pig brain membranes
# physchem = details: pH 7.4
# [1] = mouse, microsomes, 1.5 h
# human serum albumin = human serum albumin (Homo sapiens, UniProt P02768); experiment: in vitro; details: plasma
# Chain of human serum albumin (P02768 25-609): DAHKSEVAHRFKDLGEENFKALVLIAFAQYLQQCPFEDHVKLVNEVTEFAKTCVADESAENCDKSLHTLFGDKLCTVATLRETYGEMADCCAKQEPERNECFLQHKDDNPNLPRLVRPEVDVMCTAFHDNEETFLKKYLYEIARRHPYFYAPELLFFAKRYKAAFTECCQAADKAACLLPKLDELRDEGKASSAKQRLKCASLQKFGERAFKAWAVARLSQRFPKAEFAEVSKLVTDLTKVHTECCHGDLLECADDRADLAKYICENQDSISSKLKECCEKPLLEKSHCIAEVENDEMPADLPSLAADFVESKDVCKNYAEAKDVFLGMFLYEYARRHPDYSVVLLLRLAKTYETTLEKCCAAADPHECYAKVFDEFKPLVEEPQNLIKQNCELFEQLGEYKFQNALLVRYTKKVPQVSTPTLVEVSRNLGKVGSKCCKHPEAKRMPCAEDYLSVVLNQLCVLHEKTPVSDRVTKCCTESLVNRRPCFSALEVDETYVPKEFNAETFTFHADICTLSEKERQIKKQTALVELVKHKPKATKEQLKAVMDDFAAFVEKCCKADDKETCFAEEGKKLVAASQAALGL
# σ1 receptor [2] = biological target: T1, σ1 receptor (Cavia porcellus, UniProt Q60492); experiment: σ1 receptor radioligand binding assay with [3H]-(+)-pentazocine, guinea pig brain membranes; details: read-out: Ki ± SEM σ1 Receptor
# T1 sequence (Q60492 whole entry): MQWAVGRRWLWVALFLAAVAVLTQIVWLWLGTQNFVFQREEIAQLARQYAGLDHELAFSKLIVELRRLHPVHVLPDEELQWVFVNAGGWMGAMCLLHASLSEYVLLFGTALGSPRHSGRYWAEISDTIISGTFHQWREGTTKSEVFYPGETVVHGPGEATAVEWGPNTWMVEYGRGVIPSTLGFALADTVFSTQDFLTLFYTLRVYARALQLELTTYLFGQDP
# μ receptor [3] = biological target: T2, μ receptor (Cavia porcellus, UniProt A0ACM8Q262); experiment: μ receptor radioligand binding assay with [3H]DAMGO, guinea pig brain membranes
# T2 sequence (A0ACM8Q262 1-400): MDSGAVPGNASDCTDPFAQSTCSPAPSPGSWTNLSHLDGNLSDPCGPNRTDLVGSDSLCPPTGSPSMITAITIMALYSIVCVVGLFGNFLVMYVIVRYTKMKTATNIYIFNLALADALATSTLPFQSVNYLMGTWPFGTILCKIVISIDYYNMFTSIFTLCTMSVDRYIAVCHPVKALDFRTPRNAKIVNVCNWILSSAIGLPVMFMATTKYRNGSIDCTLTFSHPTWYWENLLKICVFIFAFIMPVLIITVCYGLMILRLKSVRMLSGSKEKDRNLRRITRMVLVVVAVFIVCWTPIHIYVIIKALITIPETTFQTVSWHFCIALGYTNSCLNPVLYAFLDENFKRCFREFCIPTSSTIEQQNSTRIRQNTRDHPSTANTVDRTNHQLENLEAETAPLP
# δ receptor [4] = biological target: T3, δ receptor (Rattus norvegicus, UniProt P33533); experiment: δ receptor radioligand binding assay with [3H]DPDPE, rat brain membranes; details: read-out: inhibition of the radioligand binding, δ Receptor
# T3 construct: The thawed rat brain membrane preparation (about 75 μg of the protein) was incubated; tissue Harlan-Winkelmann, Borchen, Germany; host or cells: rat brain membrane homogenate
# T3 sequence (P33533 whole entry): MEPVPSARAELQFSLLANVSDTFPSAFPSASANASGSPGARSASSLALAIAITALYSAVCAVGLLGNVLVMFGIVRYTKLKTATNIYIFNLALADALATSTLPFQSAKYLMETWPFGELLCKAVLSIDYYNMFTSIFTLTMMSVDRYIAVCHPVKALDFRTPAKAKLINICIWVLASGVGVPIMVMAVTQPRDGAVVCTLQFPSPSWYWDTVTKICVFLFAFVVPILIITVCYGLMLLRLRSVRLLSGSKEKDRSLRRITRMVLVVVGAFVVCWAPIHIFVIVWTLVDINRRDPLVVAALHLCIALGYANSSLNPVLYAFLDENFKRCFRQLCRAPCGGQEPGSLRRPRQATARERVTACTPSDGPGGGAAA
# σ2 receptor [5] = biological target: T4, σ2 receptor (Rattus norvegicus, UniProt Q5U3Y7); experiment: biochemical; details: read-out: inhibition of the radioligand binding, σ2 Receptor
# T4 construct: The thawed rat liver membrane preparation; tissue Harlan-Winkelmann, Borchen, Germany; host or cells: rat liver membrane homogenate
# T4 sequence (Q5U3Y7 1-176): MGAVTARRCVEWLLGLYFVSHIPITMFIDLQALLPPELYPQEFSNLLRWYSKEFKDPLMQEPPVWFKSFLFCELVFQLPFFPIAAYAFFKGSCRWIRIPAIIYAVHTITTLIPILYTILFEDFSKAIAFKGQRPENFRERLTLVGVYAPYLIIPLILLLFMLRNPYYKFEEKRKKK
# μ receptor [6] = biological target: T2, μ receptor; design: method as in PMID 25062506; details: [3H]DAMGO, guinea pig brain membranes; cited from earlier work
# σ2 receptor [7] = biological target: T4, σ2 receptor; details: read-out: Ki σ2 Receptor; [3H]DTG, rat liver membranes; cited from earlier work
# δ receptor [8] = biological target: T3, δ receptor; design: method as in PMID 25062506; details: test compound 1 μM, [3H]DPDPE, rat brain membranes; cited from earlier work
# σ1 receptor [9] = biological target: T1, σ1 receptor; details: [3H]-(+)-pentazocine, guinea pig brain membranes; cited from earlier work
# Chain of κ receptor (P41144 whole entry): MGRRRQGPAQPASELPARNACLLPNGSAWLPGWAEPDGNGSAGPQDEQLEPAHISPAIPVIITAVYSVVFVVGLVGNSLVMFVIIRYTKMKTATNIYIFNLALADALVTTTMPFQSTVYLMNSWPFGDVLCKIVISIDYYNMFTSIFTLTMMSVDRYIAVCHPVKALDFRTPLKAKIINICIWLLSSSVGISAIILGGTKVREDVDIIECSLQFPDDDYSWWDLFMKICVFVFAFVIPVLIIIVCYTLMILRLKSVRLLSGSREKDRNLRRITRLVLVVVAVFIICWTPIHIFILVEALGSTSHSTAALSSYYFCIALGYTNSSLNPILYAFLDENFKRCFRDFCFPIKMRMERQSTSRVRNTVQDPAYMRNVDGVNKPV
compound,measurement,setting,value
"O=C(Cc1ccc(Cl)c(Cl)c1)N1CCN(Cc2ccccc2)[C@@H]2C[C@@H](O)C[C@H](N3CCCC3)[C@H]21 (racemic) [compound 14, 1-[(4aRS,6SR,8SR,8aRS)-4-Benzyl-6-hydroxy-8-(pyrrolidin-1-yl)decahydro-quinoxalin-1-yl]-2-(3,4-dichlorophenyl)ethan-1-one]","selectivity for κ receptor over μ, δ, σ1 and σ2 receptors",κ receptor,high selectivity
same,Ki,"κ receptor; [3H]U-69,593, guinea pig brain membranes, with SEM n = 3, without SEM one experiment",599 ± 217 nM
same,logD,physchem,1.72 ± 0.05
same,compound remaining unchanged (metabolic stability),[1],92 ± 1%
same,fraction unbound,human serum albumin,0.075
same,Ki,σ1 receptor [2],7900 nM
same,inhibition at 1 µM,"μ receptor [3]; read-out: inhibition of the radioligand binding, μ Receptor",0%
same,inhibition at 1 µM,δ receptor [4],11%
same,inhibition at 1 µM,σ2 receptor [5],0%
[3H]-DAMGO [reference compound],Kd,μ receptor [3]; guinea pig brain membrane preparation,0.57 nM
O=C(Cc1ccc(Cl)c(Cl)c1)N1CCN(Cc2ccccc2)C2CCCC(N3CCCC3)C21 (centres unmarked) [2a],Ki,μ receptor [6],3900 nM
same,Ki,σ2 receptor [7],4390 nM
same,"inhibition of the radioligand binding, δ Receptor",δ receptor [8],39%
same,Ki,σ1 receptor [9],1390 nM
"CC(C)(C)[Si](C)(C)O[C@@H]1C[C@@H]2[C@@H]([C@@H](N3CCCC3)C1)N(C(=O)Cc1ccc(Cl)c(Cl)c1)CCN2Cc1ccccc1 (racemic) [compound 13, 1-[(4aRS,6SR,8SR,8aRS)-4-Benzyl-6-(tert-butyldimethylsilyloxy)-8-(pyrrolidin-1-yl)-decahydroquinoxalin-1-yl]-2-(3,4-dichlorophenyl)ethan-1-one]",inhibition at 1 µM,"κ receptor; read-out: inhibition of the radioligand binding, κ Receptor",0%
same,Ki,σ1 receptor [2],487 nM
same,inhibition at 1 µM,σ2 receptor [5],7%
